Assay results as given in US8173645B2 (Takeda San Diego, Inc., priority 2007, dated 2012).

Biological target: T1, glucokinase (GK), residues 12-465 of the human enzyme (Homo sapiens, UniProt P35557)
T1 construct: I.D. No. 1 corresponds to residues 12-465 of glucokinase; made in house; host or cells: E. coli DH10b-Tlr
T1 sequence (P35557 with tags, fused parts or gaps isoform P35557-2): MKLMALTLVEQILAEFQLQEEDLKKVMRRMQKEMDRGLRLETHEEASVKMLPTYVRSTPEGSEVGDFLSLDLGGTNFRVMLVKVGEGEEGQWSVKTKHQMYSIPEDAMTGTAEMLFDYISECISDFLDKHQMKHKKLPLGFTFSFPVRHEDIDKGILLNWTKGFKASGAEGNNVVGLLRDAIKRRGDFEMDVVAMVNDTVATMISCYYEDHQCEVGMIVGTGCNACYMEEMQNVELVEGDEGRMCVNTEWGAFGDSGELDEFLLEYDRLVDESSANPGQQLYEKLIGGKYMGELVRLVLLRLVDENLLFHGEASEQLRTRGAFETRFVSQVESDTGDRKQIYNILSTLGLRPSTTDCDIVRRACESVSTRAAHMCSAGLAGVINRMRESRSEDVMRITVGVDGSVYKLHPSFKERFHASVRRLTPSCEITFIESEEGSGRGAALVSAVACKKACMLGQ
Test: Enzymatic glucokinase activity assay (KinaseGlo luminescence, ATP consumption)
Type: biochemical
Conditions: 5 μM ATP, 5 mM Glucose; for EC50: GK activation, Kact = concentration giving 50% of the maximal increase in GK activity, read-out: pKact; for Emax: calculated maximal gain in GK enzyme activity at a saturating concentration of the compound, read-out: % ACTmax
From the text: The activity of compounds as glucokinase activators may be assayed in vitro, in vivo or in a cell line. Provided below is an enzymatic glucokinase activity assay.
Purified glucokinase may be obtained as follows. DNA encoding residues 12-465 of the full-length sequence of the human enzyme may be amplified by PCR and cloned into the HindIII and EcoRI sites of pFLAG-CTC (Sigma). SEQ. I.D. No. 1 corresponds to residues 12-465 of glucokinase.
The expression of recombinant glucokinase protein may be carried out by transformation and growth of DH10b-Tlr E. coli cells incorporating the (pFLAG-CTC) plasmid in LB media. Protein expression can be induced in this system by the addition of IPTG to the culture medium.
Recombinant protein may be isolated from cellular extracts by passage over Sepharose Q Fast Flow resin (Pharmacia). This partially purified GK extract may then be further purified by a second passage over Poros HQ 10 (Applied Biosystems). The purity of GK may be determined on denaturing SDS-PAGE gel. Purified GK may then be concentrated to a final concentration of 20.0 mg/ml. After flash freezing in liquid nitrogen, the proteins can be stored at −78° C. in a buffer containing 25 mM TRIS-HCl pH 7.6, 50 mM NaCl, and 0.5 mM TCEP.
The activation properties of compounds for GK may be determined using a black 384-well-plate format under the following reaction conditions: 25 mM Hepes pH 7.2, 25 mM NaCl, 10 mM MgCl2, 0.01% Brij35, 1 mM DTT, 5 μM ATP, 5 mM Glucose 2% DMSO. The amount of ATP consumed may be determined quantitatively by addition of equal volume of luciferase reagent (luciferase+beetle luciferin—KinaseGlo Luminescent Kinase Assay kit from Promega). The luminescence intensity may be measured by using the Analyst HT from LJL Biosystems.
The assay reaction may be initiated as follows: 4 μl of substrate mixture (12.5 μM ATP and 12.5 mM Glucose) was added to each well of the plate, followed by the addition of 2 μl of activator (2 fold serial dilutions for 11 data points for each activator) containing 10% DMSO. 4 μL of 1.25 nM GK solution may be added to initiate the reaction. The reaction mixture may then be incubated at room temperature for 60 min, and quenched and developed by addition of 10 μL of luciferase reagent. Luminescence intensities of the resulting reaction mixtures may be measured after a 10 min incubation at room temperature. The luminescence intensity may be measured by using the Analyst HT from LJL Biosystems.
pKact and % ACTmax values may be calculated by non-linear curve fitting of the compound concentrations and luminescence intensities to a standard inhibition/activation equation.

SMILES | EC50 | Emax
O=C(Nc1nccs1)[C@H](CC1CCCCC1)N1CCN(S(=O)(=O)c2cccc3nsnc23)CC1=O [Example 171, (S)-2-(4-(benzo[c][1,2,5]thiadiazol-4-ylsulfonyl)-2-oxopiperazin-1-yl)-3-cyclohexyl-N-(thiazol-2-yl)propanamide] | 794 to 1260 nM | 97.1 to 107%
O=C(Nc1ncc(Cl)s1)C(CC1CCCC1)N1CCN(S(=O)(=O)C2CC2)CC1=O (stereo not shown) [Example 16, N-(5-chlorothiazol-2-yl)-3-cyclopentyl-2-(4-(cyclopropylsulfonyl)-2-oxopiperazin-1-yl)propanamide] | ≤ 631 nM | ≥ 119%
O=C(Nc1nccs1)[C@H](CC1CCCCC1)N1CCN(S(=O)(=O)c2ccc(Br)cc2)CC1=O [Example 204, (S)-2-(4-(4-bromophenylsulfonyl)-2-oxopiperazin-1-yl)-3-cyclohexyl-N-(thiazol-2-yl)propanamide] | 1580 to 2510 nM | 74.1 to 97%
O=C(Nc1nccs1)[C@H](CC1CCCCC1)N1CCN(S(=O)(=O)c2cccc(F)c2)CC1=O [Example 61, (S)-3-cyclohexyl-2-(4-(3-fluorophenylsulfonyl)-2-oxopiperazin-1-yl)-N-(thiazol-2-yl)propanamide] | ≤ 631 nM | 108 to 119%
O=C(Nc1nccs1)[C@H](CC1CCCCC1)N1CCN(C(=S)NCc2ccco2)CC1=O [Example 115, (S)-3-cyclohexyl-2-(4-(furan-2-ylmethylcarbamothioyl)-2-oxopiperazin-1-yl)-N-(thiazol-2-yl)propanamide] | 794 to 1260 nM | 97.1 to 107%
Cc1nc(S(=O)(=O)N2CCN([C@@H](CC3CCCCC3)C(=O)Nc3nccs3)C(=O)C2)cn1C [Example 48, (S)-3-cyclohexyl-2-(4-(1,2-dimethyl-1H-imidazol-4-ylsulfonyl)-2-oxopiperazin-1-yl)-N-(thiazol-2-yl)propanamide] | 794 to 1260 nM | 108 to 119%
O=C(Nc1nccs1)[C@H](CC1CCCCC1)N1CCN(S(=O)(=O)c2cc(Cl)cc(Cl)c2)CC1=O [Example 57, (S)-3-cyclohexyl-2-(4-(3,5-dichlorophenylsulfonyl)-2-oxopiperazin-1-yl)-N-(thiazol-2-yl)propanamide] | ≤ 631 nM | 74.1 to 97%
Cc1ccc2sc(S(=O)(=O)N3CCN([C@@H](CC4CCCCC4)C(=O)Nc4nccs4)C(=O)C3)cc2c1 [Example 107, (S)-3-cyclohexyl-2-(4-(5-methylbenzo[b]thiophen-2-ylsulfonyl)-2-oxopiperazin-1-yl)-N-(thiazol-2-yl)propanamide] | 794 to 1260 nM | ≤ 74%
O=C(Nc1ncc(Cl)s1)[C@H](CC1CCOCC1)N1CCN(S(=O)(=O)c2cccs2)CC1=O [Example 37, (S)-N-(5-chlorothiazol-2-yl)-2-(2-oxo-4-(thiophen-2-ylsulfonyl)piperazin-1-yl)-3-(tetrahydro-2H-pyran-4-yl)propanamide] | ≤ 631 nM | 74.1 to 97%
O=C(Nc1nccs1)[C@H](CC1CCCCC1)N1CCN(S(=O)(=O)c2cc(Cl)ccc2Cl)CC1=O [Example 56, (S)-3-cyclohexyl-2-(4-(2,5-dichlorophenylsulfonyl)-2-oxopiperazin-1-yl)-N-(thiazol-2-yl)propanamide] | 794 to 1260 nM | 108 to 119%
N#Cc1ccc(S(=O)(=O)N2CCN([C@@H](CC3CCCCC3)C(=O)Nc3nccs3)C(=O)C2)cc1 [Example 66, (S)-2-(4-(4-cyanophenylsulfonyl)-2-oxopiperazin-1-yl)-3-cyclohexyl-N-(thiazol-2-yl)propanamide] | 1580 to 2510 nM | 74.1 to 97%
Cn1ccc(S(=O)(=O)N2CCN([C@@H](CC3CCCCC3)C(=O)Nc3nccs3)C(=O)C2)n1 [Example 112, (S)-3-cyclohexyl-2-(4-(1-methyl-1H-pyrazol-3-ylsulfonyl)-2-oxopiperazin-1-yl)-N-(thiazol-2-yl)propanamide] | ≤ 631 nM | 108 to 119%
O=C(Nc1nccs1)[C@H](CC1CCCCC1)N1CCN(C(=S)Nc2cccc(C(F)(F)F)c2)CC1=O [Example 84, (S)-3-cyclohexyl-2-(2-oxo-4-(3-(trifluoromethyl)phenylcarbamothioyl)piperazin-1-yl)-N-(thiazol-2-yl)propanamide] | ≥ 3160 nM | 97.1 to 107%
COc1ccc(S(=O)(=O)N2CCN([C@@H](CC3CCCCC3)C(=O)Nc3nccs3)C(=O)C2)cc1OC [Example 88, (S)-3-cyclohexyl-2-(4-(3,4-dimethoxyphenylsulfonyl)-2-oxopiperazin-1-yl)-N-(thiazol-2-yl)propanamide] | ≥ 3160 nM | 97.1 to 107%
O=C(Nc1nccs1)[C@H](CC1CCCCC1)N1CCN(S(=O)(=O)c2ccc(-n3cccn3)cc2)CC1=O [Example 215, (S)-2-(4-(4-(1H-pyrazol-1-yl)phenylsulfonyl)-2-oxopiperazin-1-yl)-3-cyclohexyl-N-(thiazol-2-yl)propanamide] | 1580 to 2510 nM | 74.1 to 97%
O=C(Nc1nccs1)[C@H](CC1CCCCC1)N1CCN(S(=O)(=O)Cc2ccc(Cl)c(Cl)c2)CC1=O [Example 211, (S)-3-cyclohexyl-2-(4-(3,4-dichlorobenzylsulfonyl)-2-oxopiperazin-1-yl)-N-(thiazol-2-yl)propanamide] | 1580 to 2510 nM | ≤ 74%
O=C(Nc1nccs1)[C@H](CC1CCCCC1)N1CCN(S(=O)(=O)c2ccccc2C(F)(F)F)CC1=O [Example 71, (S)-3-cyclohexyl-2-(2-oxo-4-(2-(trifluoromethyl)phenylsulfonyl)piperazin-1-yl)-N-(thiazol-2-yl)propanamide] | ≤ 631 nM | 108 to 119%
O=C(Nc1nccs1)[C@H](CC1CCCCC1)N1CCN(S(=O)(=O)c2cc(Cl)c(Cl)s2)CC1=O [Example 170, (S)-3-cyclohexyl-2-(4-(4,5-dichlorothiophen-2-ylsulfonyl)-2-oxopiperazin-1-yl)-N-(thiazol-2-yl)propanamide] | ≤ 631 nM | ≤ 74%
COc1ccc2nc(NC(=O)C(CC3CCOCC3)N3CCN(S(=O)(=O)C4CC4)CC3=O)sc2n1 (stereo not shown) [Example 26, 2-(4-(cyclopropylsulfonyl)-2-oxopiperazin-1-yl)-N-(5-methoxythiazolo[5,4-b]pyridin-2-yl)-3-(tetrahydro-2H-pyran-4-yl)propanamide] | ≥ 3160 nM | 74.1 to 97%
O=C(Nc1ncc(Cl)s1)C(CC1CCOCC1)N1CCN(S(=O)(=O)C2CC2)CC1=O (stereo not shown) [Example 23, N-(5-chlorothiazol-2-yl)-2-(4-(cyclopropylsulfonyl)-2-oxopiperazin-1-yl)-3-(tetrahydro-2H-pyran-4-yl)propanamide] | 1580 to 2510 nM | ≥ 119%
O=C(c1ccncc1)c1cccc(S(=O)(=O)N2CCN([C@@H](CC3CCCCC3)C(=O)Nc3nccs3)C(=O)C2)c1 [Example 179, (S)-3-cyclohexyl-2-(4-(3-isonicotinoylphenylsulfonyl)-2-oxopiperazin-1-yl)-N-(thiazol-2-yl)propanamide] | 794 to 1260 nM | 108 to 119%
O=C(Nc1nccs1)[C@H](CC1CCCCC1)N1CCN(S(=O)(=O)c2cccc3nonc23)CC1=O [Example 176, (S)-2-(4-(benzo[c][1,2,5]oxadiazol-4-ylsulfonyl)-2-oxopiperazin-1-yl)-3-cyclohexyl-N-(thiazol-2-yl)propanamide] | ≤ 631 nM | ≥ 119%
CC(C)C[C@@H](C(=O)Nc1ncc(F)s1)N1CCN(S(=O)(=O)C2CC2)CC1=O [Example 11, (S)-2-(4-(cyclopropylsulfonyl)-2-oxopiperazin-1-yl)-N-(5-fluorothiazol-2-yl)-4-methylpentanamide] | 794 to 1260 nM | ≥ 119%
